From PMC5047857, “Screening, production, optimization and characterization of β-glucosidase using microbes from shellfish waste” (3 Biotech, 2016)

System: T1, β-glucosidase
T1 construct: gene EC 3.2.1.21; native extracellular enzyme, partially purified from culture (ammonium sulfate, dialysis, Sephadex gel filtration); approx. 50 kDa by SDS-PAGE
Assay: p-nitrophenol release, absorbance at […] nm; plot of activity against substrate concentration
Format: biochemical, Proteus mirabilis
Conditions: partially purified enzyme; substrate of the standard assay (pNPG); pH and temperature of the kinetic run not given

Q: Which Km does the source give for O=[N+]([O-])c1ccc(O[C@@H]2O[C@H](CO)[C@@H](O)[C@H](O)[C@H]2O)cc1 [pNPG, p-Nitrophenyl-β-D-glucopyranoside] here?
A: 82 µM
